Legend:
PC3 = test: Cellular proliferation assay (Alamar blue), PC3; format: cell-based; conditions: 10% FCS, 72 h with compound, Alamar blue 24 h; for IC50: Homo sapiens, PC-3, PC-3 cells, read-out: pIC50 PC-3 (converted)
Procedure, shortened: (§1)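 Read-out: resazurin-based Alamar blue fluorescence at 544/590 nm, with dye left 24 h on PC3 and A2780, 6 h on U87-MG and 4 h on HCT-116. Beforehand, cells grew 24 h compound-free, then 72 h with compound, in 10% FCS at 37° C./5% CO2. Values are expressed against untreated controls.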

H1299 = test: Cellular proliferation assay (Alamar blue), H1299; format: cell-based; conditions: 10% FCS, 72 h with compound, Alamar blue 4 h; for IC50: Homo sapiens, NCI-H1299, H1299 cells, read-out: pIC50 H1299 (converted)
Procedure, shortened: (§2)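 Viable cell number is determined by Alamar blue conversion after cells are treated with compound for 72 hours, following 24 hours of growth without compound in 10% FCS. The effect is calculated against control cells.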

U87-MG = test: Cellular proliferation assay (Alamar blue), U87-MG; format: cell-based; conditions: Homo sapiens, U-87 MG; U87-MG cells; 10% FCS; 72 h with compound; Alamar blue 6 h; read-out: pIC50 U87MG (converted)
Procedure, shortened: as §1

HCT-116 = test: Cellular proliferation assay (Alamar blue), HCT-116; format: cell-based; conditions: Homo sapiens; HCT-116 cells; 10% FCS; 72 h with compound; Alamar blue 4 h; read-out: pIC50 HCT-116 (converted)
Procedure, shortened: as §1

MDA-MB-231 = test: Cellular proliferation assay (Alamar blue), MDA-MB-231; format: cell-based; conditions: 10% FCS, 72 h with compound, Alamar blue 24 h; for IC50: Homo sapiens, MDA-MB-231, MDA-MB-231 cells, read-out: pIC50 MDA/MB231 (converted)
Procedure, shortened: as §2

A2780 = test: Cellular proliferation assay (Alamar blue), A2780; format: cell-based; conditions: 10% FCS, 72 h with compound, Alamar blue 24 h; for IC50: Homo sapiens, A2780, A2780 cells, read-out: pIC50 A2780 (converted)
Procedure, shortened: as §1

PLK4 (h) = biological target: T1, PLK4 (h) (Homo sapiens, UniProt O00444); test: PLK-4 human kinase scintillation proximity assay (SPA); format: biochemical; conditions: 1 μM ATP, 60 minutes at r.t., read-out: PLK4 pIC50 (converted)
T1 sequence (O00444 1-970): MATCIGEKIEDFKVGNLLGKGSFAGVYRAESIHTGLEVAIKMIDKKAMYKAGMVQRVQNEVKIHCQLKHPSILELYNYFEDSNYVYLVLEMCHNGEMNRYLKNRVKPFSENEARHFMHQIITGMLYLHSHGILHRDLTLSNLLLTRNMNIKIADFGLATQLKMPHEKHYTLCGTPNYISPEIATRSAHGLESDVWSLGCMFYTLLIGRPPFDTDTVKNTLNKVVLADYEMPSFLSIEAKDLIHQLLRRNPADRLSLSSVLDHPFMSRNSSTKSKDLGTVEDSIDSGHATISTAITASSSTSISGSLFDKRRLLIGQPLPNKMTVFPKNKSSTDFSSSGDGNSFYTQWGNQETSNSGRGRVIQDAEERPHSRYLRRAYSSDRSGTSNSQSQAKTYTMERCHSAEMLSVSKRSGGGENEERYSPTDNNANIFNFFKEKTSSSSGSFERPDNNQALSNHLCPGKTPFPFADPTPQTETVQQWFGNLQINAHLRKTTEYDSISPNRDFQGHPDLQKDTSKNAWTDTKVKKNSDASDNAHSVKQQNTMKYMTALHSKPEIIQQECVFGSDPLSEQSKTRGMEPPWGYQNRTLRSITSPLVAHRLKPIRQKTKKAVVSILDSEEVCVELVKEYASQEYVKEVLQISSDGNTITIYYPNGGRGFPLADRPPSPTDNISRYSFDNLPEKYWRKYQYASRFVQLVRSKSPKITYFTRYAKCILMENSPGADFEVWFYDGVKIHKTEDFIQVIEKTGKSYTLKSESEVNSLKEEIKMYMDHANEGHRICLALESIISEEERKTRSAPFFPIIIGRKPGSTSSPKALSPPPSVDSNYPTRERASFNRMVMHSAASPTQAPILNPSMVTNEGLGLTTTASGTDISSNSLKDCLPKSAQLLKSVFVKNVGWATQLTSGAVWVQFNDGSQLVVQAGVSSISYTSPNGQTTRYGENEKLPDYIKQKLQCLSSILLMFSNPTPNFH
Procedure, shortened: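 Scintillation proximity read-out: EDTA-stopped reactions were captured on streptavidin SPA beads after PLK4 (19 μg/ml) had phosphorylated 10 μM biotin-peptide for 60 min at room temperature, using 1 μM ATP spiked with 2 nM 33P-ATP in pH 8.0 HEPES buffer.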

Structure (SMILES) | IC50 (PC3) | IC50 (H1299) | IC50 (U87-MG) | IC50 (HCT-116) | melting point | IC50 (MDA-MB-231) | IC50 (A2780) | IC50 (PLK4 (h)) | pIC50 PC-3 (PC3; PC-3 cells) | pIC50 H1299 (H1299; H1299 cells) | pIC50 MDA/MB231 (MDA-MB-231; MDA-MB-231 cells) | pIC50 A2780 (A2780; A2780 cells)
CCOCCOc1ccc2cc1OCC(=O)N(C)CCCN(C)Cc1c[nH]c3nc(C)nc(c13)N2 [Compound 147] | > 10000 nM | > 10000 nM | > 10000 nM | > 10000 nM | 251 °C | > 10000 nM | 2510 nM | – | – | – | – | –
CN1CCCN(C)C(=O)COc2cc(ccc2OCCSc2ccc(Cl)cc2)Nc2ncnc3[nH]cc(c23)C1 [Compound 150] | 5010 nM | ≥ 10000 nM | – | 63.1 nM | 252.6 °C | 2510 nM | 63.1 nM | – | – | – | – | –
CN1CCCN(C)C(=O)COc2cc(ccc2OC2CCOCC2)Nc2ncnc3[nH]cc(c23)C1 [Compound 74] | – | – | – | – | 270.9 °C | – | – | 200 nM | – | – | – | –
COCCOc1c(OC)cc2cc1OCC(=O)N(C)CCCN(C)Cc1c[nH]c3ncnc(c13)N2 [Compound 161] | – | – | – | – | 201.4 °C | – | – | – | – | – | – | –
CN1CCCN(C)C(=O)COc2cc(ccc2OCC2CCN(Cc3ccccc3)CC2)Nc2ncnc3[nH]cc(c23)C1 [Compound 149] | 1000 nM | ≥ 10000 nM | 501 nM | 398 nM | 241 °C | 1000 nM | 316 nM | – | – | – | – | –
CN1CCCN(C)C(=O)COc2cc(ccc2OCCNc2nccs2)Nc2ncnc3[nH]cc(c23)C1 [Compound 156] | 3160 nM | 2000 nM | 1260 nM | 631 nM | 238.4 °C | 3160 nM | 501 nM | – | – | – | – | –
COc1ccc(OCCOc2ccc3cc2OCC(=O)N(C)CCCN(C)Cc2c[nH]c4ncnc(c24)N3)cc1 [Compound 155] | 2510 nM | 126 nM | 251 nM | 63.1 nM | 250.4 °C | 2510 nM | 31.6 nM | – | – | – | – | –
CN1CC(=O)NCCOc2cccc(c2)Nc2ncnc3[nH]cc(c23)C1 [Compound 23] | 3160 nM | 1000 nM | 1580 nM | 1260 nM | – | 5010 nM | 1000 nM | 1580 nM | – | – | – | –
CN1CCCN(C)C(=O)COc2cc(ccc2OCCO)Nc2ncnc3[nH]cc(c23)C1 [Compound 80] | > 10000 nM | > 10000 nM | > 10000 nM | > 10000 nM | – | > 10000 nM | 6310 nM | 63.1 nM | – | – | – | –
CN1CCN(C)C(=O)CCCOc2cccc(c2)Nc2ncnc3[nH]cc(c23)C1 [Compound 31] | > 10000 nM | > 10000 nM | > 10000 nM | 6310 nM | – | > 10000 nM | 3980 nM | 794 nM | – | – | – | –
COc1ccc2cc1OCC(=O)N[C@H](CO)CN(C)CCCc1c[nH]c3ncnc(c13)N2 [Compound 3] | > 10000 nM | > 10000 nM | > 10000 nM | > 10000 nM | – | > 10000 nM | > 10000 nM | 1580 nM | – | – | – | –
CN1CCCN(C)C(=O)COc2cc(ccc2OCC2CC2)Nc2ncnc3[nH]cc(c23)C1 [Compound 68] | 3160 nM | 1580 nM | 1580 nM | 631 nM | – | 2000 nM | 631 nM | 39.8 nM | – | – | – | –
COc1ccc2cc1OCCCC(=O)N(C)CC1CN(Cc3c[nH]c4ncnc(c34)N2)C1 [Compound 73] | > 10000 nM | > 10000 nM | – | > 10000 nM | 265.3 °C | > 10000 nM | > 10000 nM | 200 nM | – | – | – | –
COc1ccc2cc1OCC(=O)NCC1CN(Cc3c[nH]c4ncnc(c34)N2)C1 [Compound 88] | > 10000 nM | > 10000 nM | 10000 nM | 5010 nM | – | > 10000 nM | > 10000 nM | 501 nM | – | – | – | –
CN1CCCN(C)C(=O)COc2cc(ccc2OC(F)F)Nc2ncnc3[nH]cc(c23)C1 [Compound 76] | 2000 nM | 1260 nM | 2510 nM | 2000 nM | – | > 10000 nM | 794 nM | 39.8 nM | – | – | – | –
COCCOc1ccc2cc1OCC(=O)N(C)CCCNCc1c[nH]c3ncnc(c13)N2 [Compound 138] | > 10000 nM | 5010 nM | > 10000 nM | 1000 nM | – | > 10000 nM | 631 nM | 25.1 nM | – | – | – | –
CN1CCCN(C)C(=O)COc2cc(ccc2OCCN(C)c2nccs2)Nc2ncnc3[nH]cc(c23)C1 [Compound 157] | 3160 nM | 1260 nM | 1000 nM | 501 nM | 232.2 °C | 3160 nM | 501 nM | – | 5.6 | 6.00 | 5.6 | 6.4
CC(C)OCCOc1ccc2cc1OCC(=O)N(C)CCCN(C)Cc1c[nH]c3ncnc(c13)N2 [Compound 131] | 7940 nM | 100 nM | 2000 nM | 63.1 nM | – | 3160 nM | 50.1 nM | 50.1 nM | – | – | – | –
CN1CCN(C)C(=O)COc2cccc(c2)Nc2ncnc3[nH]cc(c23)C1 [Compound 58] | 7940 nM | 5010 nM | 6310 nM | 2510 nM | – | 10000 nM | 3160 nM | 50.1 nM | – | – | – | –

From patent US8318731B2, “Pyrrolopyrimidines” (Janssen Pharmaceutica NV, priority 2007, dated 2012)
